Experiments:
HSV-1 helicase-primase = target: T1, HSV-1 helicase-primase (Human herpesvirus 1, UniProt P10189+P10236); experiment: HSV-1 DNA-dependent ATPase assay (inhibition of HSV-1 helicase-primase); assay type: biochemical
T1 construct: made in house; host or cells: Sf21 insect cells triply infected with recombinant baculoviruses (UL5, UL8, UL52)
Text: A) HSV-1 DNA-Dependent ATP Assay (an in Vitro Assay Based on the Inhibition of HSV-1 Helicase-primase).
HSV-1 helicase-primase holoenzyme was produced in triply infected Sf21 cells using recombinant baculoviruses expressing the UL5, UL8 and UL52 helicase-primase subunits, as described by S. Dracheva et al., J. Biol. Chem. 1995, 270, 14148. The crude enzyme was purified by ammonium sulfate precipitation, Source 15Q® chromatography and Sephacryl® S-300 HR gel filtration (both purification systems can be obtained from Pharmacia Biotech Inc., Montreal, Quebec, Canada), see S. Dracheva et al., supra.
The DNA-dependent ATPase assay, described by J. J. Crute et al., Nucleic Acids Res. 1988, 16, 6585, was modified and used to evaluate the capability of the compounds of Group 1-formula 1 to inhibit HSV-1 helicase-primase activity. The reaction mixtures (80 μL each) contained 40 mM 4-(2-hydroxyethyl)-1-piperazineethanesulfonic acid (HEPES, pH 7.5), 10% (v/v) glycerol, 5.5 mM MgCl2, 1 mM DL-dithiothreitol (DTT), 50 μg/mL acetylated bovine serum albumin, 3.3% (v/v) DMSO, 4 mM ATP, 25 μM single-stranded M13 DNA hybridized to double-tailed 68-mer oligonucleotide and 3 μg/mL HSV-1 helicase-primase. After incubation for 20 min at 34°, formation of inorganic phosphate from hydrolysis of ATP was monitored spectrophotometrically at 650 nm using acidic ammonium molybdate/malachite green reagent, P. A. Lanzetta et al., Anal. Biochem. 1979, 100, 95. DNA-dependent ATPase activity was calculated from the net absorbance change in the presence and absence of inhibition.

HSV-1 strain F or KOS = experiment: Inhibition of herpes simplex virus (HSV-1) replication in cell culture (BHK-21 cells, glycoprotein C ELISA); assay type: cell-based
Experimental: B) Inhibition of Herpes Simplex Virus (HSV-1) Replication in Cell Culture
BHK-21 cells clone 13 (ATCC CCL10) were incubated for two days in 850 cm^2 roller bottles (2×10^7 cells/bottle) with A-MEM medium (Gibco Canada Inc., Burlington, Ontario, Canada) supplemented with 8% (v/v) fetal bovine serum (FBS, Gibco Canada, Inc.). The cells were trypsinized and then 3,000 cells in 100 μL of fresh medium were transferred into each well of a 96-well microtiter plate. The cells were incubated at […] for a period of 3 days to reach a density of 50,000 cells per well. The cells were washed twice with 100 μL of α-MEM supplemented with 2% heat inactivated FBS and incubated for 1-2 hours in 100 μL of the same medium.
Thereafter, the cells were infected with HSV-1 strain F or KOS (multiplicity of infection =0.05 PFU/cell) in 50 μL of α-MEM supplemented with 2% heat inactivated FBS. Following one hour of virus absorption at 37°, the medium was removed and the cells were washed with α-MEM supplemented with 2% heat inactivated FBS (2×100 μL). The cells were incubated with or without 100 μL of the appropriate concentration of test reagent in α-MEM medium supplemented with 2% heat inactivated FBS. After 24 hours of incubation at 37°, the extent of viral replication was determined by an ELISA assay; for instance, the following assay that detects the late glycoprotein C of HSV-1.
Cells were fixed in the microtiter plate with 100 μL of 0.063% glutaraldehyde in phosphate buffered saline for 30 min at room temperature. The microtiter plate was then washed once with casein blocking solution and blocked with 200 μL of the same solution for one hour at room temperature. Thereafter, 100 μL of mAb C11 recognizing the glycoprotein C of HSV-1 (see E. Trybala et al., Journal of General Virology, 1994, 75, 743) was added to each well for two hours at room temperature. The plate was washed three times with phosphate buffered saline containing 0.05% polyoxyethylene (20) sorbitan monooleate. The cells were incubated with 100 μL of sheep anti-mouse IgG horseradish peroxidase for one hour at room temperature in the dark.
The plate was washed three times with 200 μL of the above-noted phosphate buffer saline preparation, and then once with 0.1 M sodium citrate (pH 4.5). Thereafter, 100 μL of orthophenylenediamine dihydrochloride (OPD, Gibco, Canada Inc.) was added to each well. The plate was agitated on a microplate shaker for 30 min in the dark. Color development was monitored at 450 nm using a microplate spectrophotometer.
SAS was used to calculate % inhibition of viral replication and to generate EC50 values.

[1] = Human alphaherpesvirus 1, BHK-21, Group 1 Table 1 entries

T1 sequence (P10192 whole entry): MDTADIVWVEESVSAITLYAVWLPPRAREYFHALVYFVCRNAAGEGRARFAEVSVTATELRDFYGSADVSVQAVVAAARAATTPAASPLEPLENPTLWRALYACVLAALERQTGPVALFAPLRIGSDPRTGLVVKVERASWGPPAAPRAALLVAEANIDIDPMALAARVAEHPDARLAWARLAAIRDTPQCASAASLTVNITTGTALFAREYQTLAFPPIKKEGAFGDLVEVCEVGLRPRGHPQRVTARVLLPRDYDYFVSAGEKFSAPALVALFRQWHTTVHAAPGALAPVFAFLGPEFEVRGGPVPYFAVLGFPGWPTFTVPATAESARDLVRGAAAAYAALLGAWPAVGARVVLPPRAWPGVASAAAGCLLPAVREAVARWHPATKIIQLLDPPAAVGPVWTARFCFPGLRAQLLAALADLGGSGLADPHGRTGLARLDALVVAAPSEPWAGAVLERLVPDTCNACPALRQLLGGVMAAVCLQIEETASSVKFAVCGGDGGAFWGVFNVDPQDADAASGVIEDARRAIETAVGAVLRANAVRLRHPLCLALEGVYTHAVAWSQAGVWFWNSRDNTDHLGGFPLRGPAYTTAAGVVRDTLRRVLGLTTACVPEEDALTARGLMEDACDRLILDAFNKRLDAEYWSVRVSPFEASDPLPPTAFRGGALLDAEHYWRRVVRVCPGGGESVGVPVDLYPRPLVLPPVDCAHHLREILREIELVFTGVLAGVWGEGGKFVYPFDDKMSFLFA
T1 sequence (P10236 whole entry): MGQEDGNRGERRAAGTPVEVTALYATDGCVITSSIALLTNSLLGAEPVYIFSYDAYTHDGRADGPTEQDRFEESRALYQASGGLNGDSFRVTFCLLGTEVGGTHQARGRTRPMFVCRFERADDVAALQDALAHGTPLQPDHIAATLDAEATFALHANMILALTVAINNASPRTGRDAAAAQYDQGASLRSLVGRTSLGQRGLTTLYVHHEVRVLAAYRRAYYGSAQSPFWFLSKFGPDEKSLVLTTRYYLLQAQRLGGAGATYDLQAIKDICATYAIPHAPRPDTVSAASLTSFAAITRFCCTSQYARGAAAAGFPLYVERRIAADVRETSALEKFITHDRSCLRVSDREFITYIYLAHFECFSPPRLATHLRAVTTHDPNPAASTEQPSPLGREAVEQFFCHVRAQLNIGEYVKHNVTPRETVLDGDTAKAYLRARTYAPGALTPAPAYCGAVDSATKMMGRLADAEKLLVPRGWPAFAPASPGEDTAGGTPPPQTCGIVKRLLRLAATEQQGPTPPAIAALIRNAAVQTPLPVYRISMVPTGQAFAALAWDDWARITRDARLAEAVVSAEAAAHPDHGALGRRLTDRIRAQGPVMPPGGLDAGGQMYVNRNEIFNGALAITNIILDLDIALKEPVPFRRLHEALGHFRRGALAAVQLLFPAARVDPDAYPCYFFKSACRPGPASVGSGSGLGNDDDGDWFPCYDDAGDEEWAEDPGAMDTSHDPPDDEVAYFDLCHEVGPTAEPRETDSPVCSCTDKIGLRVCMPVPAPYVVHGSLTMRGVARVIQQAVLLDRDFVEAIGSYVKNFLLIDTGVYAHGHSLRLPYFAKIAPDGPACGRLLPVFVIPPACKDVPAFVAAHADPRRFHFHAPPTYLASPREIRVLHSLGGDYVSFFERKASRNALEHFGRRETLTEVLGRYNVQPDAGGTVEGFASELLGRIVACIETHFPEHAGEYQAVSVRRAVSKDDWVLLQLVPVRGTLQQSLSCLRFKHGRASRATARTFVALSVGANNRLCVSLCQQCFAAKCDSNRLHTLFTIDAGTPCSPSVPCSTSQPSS
T1 sequence (P10189 whole entry): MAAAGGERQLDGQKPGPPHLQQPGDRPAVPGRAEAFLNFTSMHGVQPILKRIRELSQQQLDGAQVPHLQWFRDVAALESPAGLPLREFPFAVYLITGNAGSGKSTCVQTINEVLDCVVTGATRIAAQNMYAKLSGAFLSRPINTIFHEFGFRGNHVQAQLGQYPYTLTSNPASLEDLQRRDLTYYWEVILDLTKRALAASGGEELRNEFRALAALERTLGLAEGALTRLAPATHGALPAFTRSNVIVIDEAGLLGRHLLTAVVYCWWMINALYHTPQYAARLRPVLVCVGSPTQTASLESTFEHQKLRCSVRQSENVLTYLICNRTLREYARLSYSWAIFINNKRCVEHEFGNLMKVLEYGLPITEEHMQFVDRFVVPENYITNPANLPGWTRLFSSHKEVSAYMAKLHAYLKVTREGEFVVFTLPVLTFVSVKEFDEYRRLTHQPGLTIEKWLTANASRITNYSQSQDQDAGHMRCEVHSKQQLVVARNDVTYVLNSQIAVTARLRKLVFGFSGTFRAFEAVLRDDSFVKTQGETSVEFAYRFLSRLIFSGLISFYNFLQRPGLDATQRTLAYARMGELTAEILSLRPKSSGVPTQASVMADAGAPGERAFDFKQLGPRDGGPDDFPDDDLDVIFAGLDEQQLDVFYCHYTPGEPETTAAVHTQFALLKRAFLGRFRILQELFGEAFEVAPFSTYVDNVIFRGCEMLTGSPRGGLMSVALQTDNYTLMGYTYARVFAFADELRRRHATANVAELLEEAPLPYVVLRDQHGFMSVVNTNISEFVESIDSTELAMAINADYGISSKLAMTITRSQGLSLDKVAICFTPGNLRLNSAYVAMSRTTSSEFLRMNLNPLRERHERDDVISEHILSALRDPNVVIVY

| Structure (SMILES) | IC50 (HSV-1 helicase-primase; Group 1 Table 1 entries) | EC50 (HSV-1 strain F or KOS; [1]) | further results |
| --- | --- | --- | --- |
| Nc1nc(-c2ccc(NC(=O)CNCc3ccc(Cl)cc3)cc2)cs1 [Example 5] | 5400 nM | 42000 nM |  |
| Cc1ccc(CNCC(=O)Nc2ccc(-c3csc(N)n3)cc2)cc1 [Example 6] | 19000 nM | 18000 nM |  |
| CNc1nc(-c2ccc(NC(=O)CNCc3ccccc3)cc2)cs1 [Example 7] |  |  | EC50 (HSV-1 strain F or KOS; Human alphaherpesvirus 1, BHK-21, Group 1 Table 3 entries): 4100 nM |
| COc1ccc(CNCC(=O)Nc2ccc(-c3csc(N)n3)cc2)cc1 [Example 7] | 48000 nM | 7000 nM |  |
| Nc1nc(-c2ccc(NC(=O)CNCc3cccc(F)c3)cc2)cs1 [Example 9] | ~5000 nM |  |  |
| Nc1nc(-c2ccc(NC(=O)CN(Cc3ccccc3F)Cc3ccccc3F)cc2)cs1 [Example 17] | 1800 nM | 4000 nM |  |
| Nc1nc(-c2ccc(NC(=O)CN(Cc3cccc(F)c3)Cc3cccc(F)c3)cc2)cs1 [Example 18] | 400 nM | 100 nM |  |
| Nc1nc(-c2ccc(NC(=O)[C@H](Cc3ccccc3)NC(=O)OCc3ccccc3)cc2)cs1 [Example 23] |  |  | IC50 (HSV-1 helicase-primase; Group 1 Table 5 entries): 600 nM; EC50 (HSV-1 strain F or KOS; Human alphaherpesvirus 1, BHK-21, Group 1 Table 5 entries): 94 nM |
| Nc1nc(-c2ccc(NC(=O)CN(Cc3ccc(Cl)cc3)C(=O)c3ccncc3)cc2)cs1 [Example 55] |  | 95 nM |  |
| Nc1nc(-c2ccc(NC(=O)CN(CC3CCCCC3)C(=O)c3ccncc3)cc2)cs1 [Example 57] |  | 950 nM |  |
| Nc1nc(-c2ccc(NC(=O)CN(Cc3ccc(F)cc3)C(=O)c3ccccc3)cc2)cs1 [Example 59] | 300 nM | 15 nM |  |
| CC(C)(C)OC(=O)N1CCC(C(=O)N(CC(=O)Nc2ccc(-c3csc(N)n3)cc2)CC2CCCCC2)CC1 [Example 61] |  | 1600 nM |  |
| [N-]=[N+]=Nc1ccc(C(=O)N(CC(=O)Nc2ccc(-c3csc(N)n3)cc2)Cc2ccc(Cl)cc2)cc1 [Example 65] | 840 nM |  |  |
| Nc1nc(-c2ccc(NC(=O)CN(CCc3ccccc3)C(=O)C3CCCCC3)cc2)cs1 [Example 68] |  | 50 nM |  |
| Nc1nc(-c2ccc(NC(=O)CN(Cc3ccc(Cl)cc3)C(=O)CC3CCCCC3)cc2)cs1 [Example 69] |  | 180 nM |  |
| Nc1nc(-c2ccc(NC(=O)CN(Cc3ccc(Cl)c(I)c3)C(=O)c3ccncc3)cc2)cs1 [Example 70] | 570 nM | 160 nM |  |
| [N-]=[N+]=Nc1ccc(C(=O)N(CC(=O)Nc2ccc(-c3csc(N)n3)cc2)Cc2ccccc2)cc1 [Example 74] | 280 nM | 120 nM |  |
| Nc1nc(-c2ccc(NC(=O)CN(CC3CCCCC3)C(=O)CC3CCCC3)cc2)cs1 [Example 75] |  | 240 nM |  |
| [N-]=[N+]=Nc1ccc(C(=O)N(CC(=O)Nc2ccc(-c3csc(N)n3)cc2)Cc2ccncc2)cc1 [Example 78] |  | 180 nM |  |
| CC(C)CN(CC(=O)Nc1ccc(-c2csc(N)n2)cc1)C(=O)C1CCCCC1 [Example 81] |  | 180 nM |  |
| Nc1nc(-c2ccc(NC(=O)CN(Cc3ccc(F)cc3)C(=O)C3CCCCC3)cc2)cs1 [Example 83] |  | 6 nM |  |
| CC(C)COC(=O)N(CC(=O)Nc1ccc(-c2csc(N)n2)cc1)Cc1ccccc1 [Example 86] |  | 88 nM |  |
| CC(C)(C)NC(=O)N(CC(=O)Nc1ccc(-c2csc(N)n2)cc1)Cc1ccccc1 [Example 92] |  | 34 nM |  |
| CN(C(=O)N(CC(=O)Nc1ccc(-c2csc(N)n2)cc1)Cc1ccccc1)C(C)(C)C [Example 94] |  | 65 nM |  |
| Nc1nc(-c2ccc(NC(=O)CN(Cc3ccccc3)C(=O)N3CCOCC3)cc2)cs1 [Example 95] |  | 37 nM |  |

| Structure (SMILES) | IC50 (HSV-1 helicase-primase; Group 1 Table 1 entries) | EC50 (HSV-1 strain F or KOS; [1]) | further results |
| --- | --- | --- | --- |
| Nc1nc(-c2ccc(NC(=O)CN(Cc3ccccc3)S(=O)(=O)N3CCOCC3)cc2)cs1 [Example 96] |  | 120 nM |  |
| CN(C)c1cccc2c(S(=O)(=O)N(CC(=O)Nc3ccc(-c4csc(N)n4)cc3)Cc3ccncc3)cccc12 [Example 99] | 1600 nM | 670 nM |  |
| CC(C)(C)OC(=O)N(CC(=O)Nc1ccc(-c2csc(N)n2)cc1)CC1CCCCC1 [Example 100] |  | 850 nM |  |
| Cc1ccccc1CN(CC(=O)Nc1ccc(-c2csc(N)n2)cc1)C(=O)c1ccncc1 [Example 102] |  | 11 nM |  |
| C[C@@H](c1ccccc1)N(CC(=O)Nc1ccc(-c2csc(N)n2)cc1)C(=O)NC(C)(C)C [Example 105] |  | 290 nM |  |
| Nc1nc(-c2ccc(NC(=O)CN(Cc3ccccc3Cl)C(=O)c3ccncc3)cc2)cs1 [Example 145] | 390 nM | 19 nM |  |
| Nc1nc(-c2ccc(NC(=O)CN(Cc3cccc(Cl)c3)C(=O)c3ccncc3)cc2)cs1 [Example 146] | 150 nM | 5 nM |  |
| Nc1nc(-c2ccc(NC(=O)CN(Cc3cccc(F)c3)C(=O)c3ccncc3)cc2)cs1 [Example 147] | 350 nM | 22 nM |  |
| COc1ccccc1CN(CC(=O)Nc1ccc(-c2csc(N)n2)cc1)C(=O)c1ccncc1 [Example 148] | 380 nM | 25 nM |  |
| COc1cccc(CN(CC(=O)Nc2ccc(-c3csc(N)n3)cc2)C(=O)c2ccncc2)c1 [Example 149] | 450 nM | 55 nM |  |
| COc1ccc(CN(CC(=O)Nc2ccc(-c3csc(N)n3)cc2)C(=O)c2ccncc2)cc1 [Example 150] | 2000 nM | 120 nM |  |
| Cc1cccc(CN(CC(=O)Nc2ccc(-c3csc(N)n3)cc2)C(=O)c2ccncc2)c1 [Example 151] | 76 nM | 11 nM |  |
| Cc1ccc(CN(CC(=O)Nc2ccc(-c3csc(N)n3)cc2)C(=O)c2ccncc2)cc1 [Example 152] | 1600 nM | 77 nM |  |
| Nc1nc(-c2ccc(NC(=O)CN(Cc3c(F)cccc3F)C(=O)c3ccncc3)cc2)cs1 [Example 153] | 1900 nM | 190 nM |  |
| Cc1cccc(CN(CC(=O)Nc2ccc(-c3csc(N)n3)cc2)C(=O)c2ccncc2)c1C [Example 154] | 41 nM | 5 nM |  |
| Cc1ccc(C)c(CN(CC(=O)Nc2ccc(-c3csc(N)n3)cc2)C(=O)c2ccncc2)c1 [Example 155] | 200 nM | 11 nM |  |
| Cc1cccc(C)c1CN(CC(=O)Nc1ccc(-c2csc(N)n2)cc1)C(=O)c1ccncc1 [Example 156] | 3500 nM | 420 nM |  |
| Cc1cc(C)cc(CN(CC(=O)Nc2ccc(-c3csc(N)n3)cc2)C(=O)c2ccncc2)c1 [Example 157] | 40 nM | 10 nM |  |
| Nc1nc(-c2ccc(NC(=O)CN(CCc3ccccn3)C(=O)c3ccncc3)cc2)cs1 [Example 158] | 1800 nM | 440 nM |  |
| Nc1nc(-c2ccc(NC(=O)CN(Cc3cccs3)C(=O)c3ccncc3)cc2)cs1 [Example 159] | 1700 nM | 210 nM |  |
| Nc1nc(-c2ccc(NC(=O)CN(CCc3cccs3)C(=O)c3ccncc3)cc2)cs1 [Example 160] | 680 nM | 51 nM |  |
| Nc1nc(-c2ccc(NC(=O)CN(Cc3cscn3)C(=O)c3ccncc3)cc2)cs1 [Example 161] | 3400 nM | 530 nM |  |
| Cc1nc(CN(CC(=O)Nc2ccc(-c3csc(N)n3)cc2)C(=O)c2ccncc2)cs1 [Example 162] | 2500 nM | 69 nM |  |
| Nc1nc(-c2ccc(NC(=O)CN(CCc3nccs3)C(=O)c3ccncc3)cc2)cs1 [Example 163] | 2400 nM | 680 nM |  |

From patent US6288091A, “Antiherpes virus compounds and methods for their preparation and use” (Boehringer Ingelheim Ltd., priority 1999, dated 2001)
